Test results published in patent US10167262B2, “Herbicidal substituted 3-arylpyrazoles” (FMC CORPORATION, priority 2014, dated 2019).
Like-named read-outs stand apart in the source and are kept apart here.

What was measured:
Type in all cases: in vivo
[1] = system: wheat (Triticum aestivum); test: Test A pre-/postemergence greenhouse herbicide test, visual injury rating 0-100; conditions: 1000 g ai/ha; for plant injury at 1000 g/ha: Triticum aestivum, 240 h, read-out: Plant response rating (0 to 100 scale), Wheat
Method in brief: (§1)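 Each species was treated both before emergence, via soil spray onto a loam–sand blend, and after emergence at the one- to two-leaf stage. Plants stayed in the greenhouse around 10 days before visual injury assessment.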

[2] = system: pigweed (Amaranthus retroflexus); test: as above; conditions: 1000 g ai/ha; for pest or weed control at 1000 g/ha: Amaranthus retroflexus, 240 h, read-out: Plant response rating (0 to 100 scale), Pigweed
Method in brief: as §1

[3] = system: velvetleaf (Abutilon theophrasti); test: as above; conditions: 1000 g ai/ha; for pest or weed control at 1000 g/ha: Abutilon theophrasti, 240 h, read-out: Plant response rating (0 to 100 scale), Velvetleaf
Method in brief: as §1

corn (Zea mays) = test: as above; conditions: 1000 g ai/ha; for plant injury at 1000 g/ha: Zea mays, 240 h, read-out: Plant response rating (0 to 100 scale), Corn
Method in brief: as §1

[4] = system: giant foxtail (Setaria faberii); test: as above; conditions: 1000 g ai/ha; for pest or weed control at 1000 g/ha: Setaria faberi, 240 h, read-out: Plant response rating (0 to 100 scale), Foxtail, Giant
Method in brief: as §1

[5] = system: morningglory (Ipomoea spp.); test: as above; conditions: 1000 g ai/ha
Method in brief: as §1

[6] = system: large (Lg) crabgrass (Digitaria sanguinalis); test: as above; conditions: 1000 g ai/ha; for pest or weed control at 1000 g/ha: Digitaria sanguinalis, 240 h, read-out: Plant response rating (0 to 100 scale), Crabgrass, Large
Method in brief: as §1

[7] = system: barnyardgrass (Echinochloa crus-galli); test: as above; conditions: 1000 g ai/ha; for pest or weed control at 1000 g/ha: Echinochloa crus-galli, 240 h, read-out: Plant response rating (0 to 100 scale), Barnyardgrass
Method in brief: as §1

[8] = system: johnsongrass (Sorghum halepense); test: Test C pre-/postemergence greenhouse test, plant response rating 0-100; conditions: for pest or weed control at 62 g/ha / pest or weed control at 125 g/ha / pest or weed control at 250 g/ha / pest or weed control at 500 g/ha: Sorghum halepense; for pest or weed control at 500 g/ha: 500 g ai/ha
Method in brief: (§2)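 Pre- and postemergence greenhouse test: seeds sown in loam/sand and treated preemergence, or plants at 2–18 cm (1- to 4-leaf stage) in peat-based medium sprayed postemergence, with compounds in non-phytotoxic solvent plus surfactant. Visual rating versus untreated controls after 13–15 days, 0 (no effect) to 100 (complete control).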

[9] = system: velvetleaf (Abutilon theophrasti); test: as above; conditions: for pest or weed control at 62 g/ha / pest or weed control at 125 g/ha / pest or weed control at 250 g/ha / pest or weed control at 500 g/ha: Abutilon theophrasti; for pest or weed control at 500 g/ha: 500 g ai/ha
Method in brief: as §2

[10] = system: lambsquarters (Chenopodium album); test: as above; conditions: for pest or weed control at 62 g/ha / pest or weed control at 125 g/ha / pest or weed control at 250 g/ha / pest or weed control at 500 g/ha: Chenopodium album; for pest or weed control at 500 g/ha: 500 g ai/ha
Method in brief: as §2

[11] = system: morningglory (Ipomoea coccinea); test: as above; conditions: for pest or weed control at 62 g/ha / pest or weed control at 125 g/ha / pest or weed control at 250 g/ha / pest or weed control at 500 g/ha: Ipomoea; for pest or weed control at 500 g/ha: 500 g ai/ha
Method in brief: as §2

[12] = post-emergence, Postemergence, 250 g ai/ha, scale 0 to 100
[13] = post-emergence, Postemergence, scale 0 to 100
[14] = pre-emergence, Preemergence, 250 g ai/ha
[15] = Postemergence, 250 g ai/ha, scale 0 to 100

Structure (SMILES): C#CCn1cc(C(=O)c2ccccc2)c(-c2cc(Cl)cc(Cl)c2)n1 [Compound 39, [3-(3,5-dichlorophenyl)-1-(2-propyn-1-yl)-1H-pyrazol-4-yl]phenylmethanone]
- plant injury at 1000 g/ha ([1]; post-emergence, Postemergence): 0%
- plant injury at 1000 g/ha ([1]; pre-emergence, Preemergence): 0%
- pest or weed control at 1000 g/ha ([2]; post-emergence, Postemergence): 100%
- pest or weed control at 1000 g/ha ([2]; pre-emergence, Preemergence): 100%
- pest or weed control at 1000 g/ha ([3]; post-emergence, Postemergence): 100%
- pest or weed control at 1000 g/ha ([3]; pre-emergence, Preemergence): 100%
- plant injury at 1000 g/ha (corn (Zea mays); post-emergence, Postemergence): 0%
- plant injury at 1000 g/ha (corn (Zea mays); pre-emergence, Preemergence): 0%
- pest or weed control at 1000 g/ha ([4]; post-emergence, Postemergence): 0%
- pest or weed control at 1000 g/ha ([4]; pre-emergence, Preemergence): 0%
- pest or weed control at 1000 g/ha ([5]; Ipomoea, pre-emergence, 240 h, Preemergence, read-out: Plant response rating (0 to 100 scale), Morningglory): 0%
- pest or weed control at 1000 g/ha ([6]; post-emergence, Postemergence): 0%
- pest or weed control at 1000 g/ha ([6]; pre-emergence, Preemergence): 0%
- pest or weed control at 1000 g/ha ([7]; post-emergence, Postemergence): 0%
- pest or weed control at 1000 g/ha ([7]; pre-emergence, Preemergence): 0%
- pest or weed control at 62 g/ha ([8]; post-emergence, Postemergence, 62 g ai/ha, read-out: Plant response rating (0 to 100), Johnsongrass): 0%
- pest or weed control at 125 g/ha ([8]; post-emergence, Postemergence, 125 g ai/ha, read-out: Plant response rating (0 to 100), Johnsongrass): 0%
- pest or weed control at 250 g/ha [8, 12]: 5%
- pest or weed control at 500 g/ha [8, 13]: 5%
- pest or weed control at 62 g/ha ([8]; pre-emergence, Preemergence, 62 g ai/ha, read-out: Plant response rating, Johnsongrass): 0%
- pest or weed control at 125 g/ha ([8]; pre-emergence, Preemergence, 125 g ai/ha, read-out: Plant response rating, Johnsongrass): 0%
- pest or weed control at 250 g/ha [8, 14]: 0%
- pest or weed control at 500 g/ha ([8]; pre-emergence, Preemergence): 0%
- pest or weed control at 62 g/ha ([9]; post-emergence, Postemergence, 62 g ai/ha, read-out: Plant response rating (0 to 100), Velvetleaf): 75%
- pest or weed control at 125 g/ha ([9]; post-emergence, Postemergence, 125 g ai/ha, read-out: Plant response rating (0 to 100), Velvetleaf): 85%
- pest or weed control at 250 g/ha [9, 12]: 85%
- pest or weed control at 500 g/ha [9, 13]: 98%
- pest or weed control at 62 g/ha ([9]; pre-emergence, Preemergence, 62 g ai/ha, read-out: Plant response rating, Velvetleaf): 55%
- pest or weed control at 125 g/ha ([9]; pre-emergence, Preemergence, 125 g ai/ha, read-out: Plant response rating, Velvetleaf): 65%
- pest or weed control at 250 g/ha [9, 14]: 65%
- pest or weed control at 500 g/ha ([9]; pre-emergence, Preemergence): 80%
- pest or weed control at 62 g/ha ([10]; post-emergence, Postemergence, 62 g ai/ha, read-out: Plant response rating (0 to 100), Lambsquarters): 80%
- pest or weed control at 125 g/ha ([10]; post-emergence, Postemergence, 125 g ai/ha, read-out: Plant response rating (0 to 100), Lambsquarters): 80%
- pest or weed control at 250 g/ha [10, 12]: 100%
- pest or weed control at 500 g/ha [10, 13]: 100%
- pest or weed control at 62 g/ha ([10]; pre-emergence, Preemergence, 62 g ai/ha, read-out: Plant response rating, Lambsquarters): 30%
- pest or weed control at 125 g/ha ([10]; pre-emergence, Preemergence, 125 g ai/ha, read-out: Plant response rating, Lambsquarters): 100%
- pest or weed control at 250 g/ha [10, 14]: 100%
- pest or weed control at 500 g/ha ([10]; pre-emergence, Preemergence): 100%
- pest or weed control at 62 g/ha ([11]; post-emergence, Postemergence, 62 g ai/ha, read-out: Plant response rating (0 to 100), Morningglory): 0%
- pest or weed control at 125 g/ha ([11]; post-emergence, Postemergence, 125 g ai/ha, read-out: Plant response rating (0 to 100), Morningglory): 0%
- pest or weed control at 250 g/ha [11, 12]: 10%
- pest or weed control at 500 g/ha [11, 13]: 10%
- pest or weed control at 62 g/ha ([11]; pre-emergence, Preemergence, 62 g ai/ha, read-out: Plant response rating, Morningglory): 20%
- pest or weed control at 125 g/ha ([11]; pre-emergence, Preemergence, 125 g ai/ha, read-out: Plant response rating, Morningglory): 20%
- pest or weed control at 250 g/ha [11, 14]: 20%
- pest or weed control at 500 g/ha ([11]; pre-emergence, Preemergence): 20%

Structure (SMILES): ON=C(c1ccccc1)c1c[nH]nc1-c1cc(Cl)cc(Cl)c1 [Compound 50]
- Plant response rating (0 to 100 scale), Wheat ([1]; Postemergence): 0
- Plant response rating (0 to 100 scale), Wheat ([1]; Preemergence): 0
- Plant response rating (0 to 100 scale), Pigweed ([2]; Postemergence): 90
- Plant response rating (0 to 100 scale), Pigweed ([2]; Preemergence): 100
- Plant response rating (0 to 100 scale), Velvetleaf ([3]; Postemergence): 100
- Plant response rating (0 to 100 scale), Velvetleaf ([3]; Preemergence): 90
- Plant response rating (0 to 100 scale), Corn (corn (Zea mays); Postemergence): 0
- Plant response rating (0 to 100 scale), Corn (corn (Zea mays); Preemergence): 0
- Plant response rating (0 to 100 scale), Foxtail, Giant ([4]; Postemergence): 10
- Plant response rating (0 to 100 scale), Foxtail, Giant ([4]; Preemergence): 0
- Plant response rating (0 to 100 scale), Morningglory ([5]; Postemergence): 0
- Plant response rating (0 to 100 scale), Morningglory ([5]; Preemergence): 0
- Plant response rating (0 to 100 scale), Crabgrass, Large ([6]; Postemergence): 0
- Plant response rating (0 to 100 scale), Crabgrass, Large ([6]; Preemergence): 0
- Plant response rating (0 to 100 scale), Barnyardgrass ([7]; Postemergence): 0
- Plant response rating (0 to 100 scale), Barnyardgrass ([7]; Preemergence): 0
- Plant response rating (0 to 100), Johnsongrass ([8]; Postemergence, 62 g ai/ha): 0
- Plant response rating (0 to 100), Johnsongrass ([8]; Postemergence, 125 g ai/ha): 0
- Plant response rating, Johnsongrass [8, 15]: 0
- Plant response rating (0 to 100), Velvetleaf ([9]; Postemergence, 62 g ai/ha): 75
- Plant response rating (0 to 100), Velvetleaf ([9]; Postemergence, 125 g ai/ha): 90
- Plant response rating, Velvetleaf [9, 15]: 95
- Plant response rating (0 to 100), Lambsquarters ([10]; Postemergence, 62 g ai/ha): 80
- Plant response rating (0 to 100), Lambsquarters ([10]; Postemergence, 125 g ai/ha): 100
- Plant response rating, Lambsquarters [10, 15]: 100
- Plant response rating (0 to 100), Morningglory ([11]; Postemergence, 62 g ai/ha): 0
- Plant response rating (0 to 100), Morningglory ([11]; Postemergence, 125 g ai/ha): 0
- Plant response rating, Morningglory [11, 15]: 0
